# Earlier results in patent US7973084B2, “Molecular transporters based on alditol or inositol and processes for the preparation thereof” (Postech Academy-Industrial Foundation, priority 2005, dated 2011).
# System: Jurkat cells
Substance,effectiveness in the transportation across a biological membrane relative to Tat protein (49-57 a.a.) (compared with Tat protein (49-57 a.a.)),uptake by Jurkat cells (determined using FACS)
L-arginine nonamer,20 times,–
D-arginine nonamer,–,much more effective
